Experimental data reported in DBAASP.
Converted amounts (≈) assume the structure as drawn. “And” between values parts separate entries of the source, which are not always exact repeats. Equal values may be shown once.

Legend:
Test in all cases: ≥ marks a high value that may be exact or a test limit, other limits are often not marked, values filed in µg/mL are converted to µM
[1] = tested on: Escherichia coli NEB5alpha
[2] = tested on: Bacillus subtilis ATCC 6051
Streptococcus mutans = tested on: Streptococcus mutans
Salmonella typhimurium = tested on: Salmonella typhimurium
Cryptococcus neoformans = tested on: Cryptococcus neoformans
Serratia marcescens = tested on: Serratia marcescens
Saccharomyces cerevisiae = tested on: Saccharomyces cerevisiae
Pseudomonas putida = tested on: Pseudomonas putida
Staphylococcus aureus = tested on: Staphylococcus aureus
Candida albicans = tested on: Candida albicans
Escherichia coli = tested on: Escherichia coli
Bacillus subtilis = tested on: Bacillus subtilis
Streptococcus pneumoniae = tested on: Streptococcus pneumoniae
[3] = tested on: Klebsiella aerogenes ATCC 13048
Escherichia coli DL7 = tested on: Escherichia coli DL7
[4] = tested on: Staphylococcus epidermidis ATCC 12228
[5] = tested on: Pectobacterium carotovorum

Row | SMILES | MIC (Streptococcus mutans) [µM] | MIC (Salmonella typhimurium) [µM] | MIC (Cryptococcus neoformans) [µM] | MIC (Serratia marcescens) [µM] | MIC (Saccharomyces cerevisiae) [µM] | MIC (Pseudomonas putida) [µM] | MIC (Staphylococcus aureus) [µM] | MIC (Candida albicans) [µM] | MIC (Escherichia coli) [µM] | MIC (Bacillus subtilis) [µM] | MIC (Streptococcus pneumoniae) [µM] | further results
1 | CC[C@H](C)[C@H](N)C(=O)N[C@@H](CC(N)=O)C(=O)NCC(=O)N[C@@H](CCSC)C(=O)N1CCC[C@H]1C(=O)N[C@@H](CCC(=O)O)C(=O)N[C@@H](CCC(=O)O)C(=O)N[C@H](C(=O)N[C@H](C(=O)N[C@@H](C)C(=O)N[C@@H](C)C(=O)O)C(C)C)C(C)C [INGMPEEVVAA] |  |  |  |  |  |  |  |  |  |  |  | MIC [1]: ≥ 1000 µM; MIC [2]: ≥ 1000 µM
2 | CC[C@H](C)[C@H](NC(=O)CNC(=O)CNC(=O)[C@@H](NC(=O)[C@@H]1CCCN1C(=O)[C@H](Cc1ccccc1)NC(=O)[C@H](CCC(N)=O)NC(=O)[C@H](CC(C)C)NC(=O)CNC(=O)[C@H](C)NC(=O)[C@@H](N)CCCN=C(N)N)C(C)C)C(=O)NCC(=O)N[C@@H](CCCCN)C(=O)N[C@@H](Cc1ccccc1)C(=O)N[C@@H](CC(C)C)C(=O)N[C@@H](Cc1cnc[nH]1)C(=O)N[C@@H](CO)C(=O)N[C@@H](C)C(=O)N[C@@H](CCCCN)C(=O)N[C@@H](CCCCN)C(=O)N[C@@H](Cc1ccccc1)C(=O)NCC(=O)N[C@@H](CCCCN)C(=O)O [RAGLQFPVGGIGKFLHSAKKFGK] | 6.55 (≈ 16 µg/mL) | 3.27 (≈ 8 µg/mL) | 1.64 (≈ 4 µg/mL) | 6.55 (≈ 16 µg/mL) | 1.64 (≈ 4 µg/mL) | 13.1 (≈ 32 µg/mL) | 6.55 (≈ 16 µg/mL) | 1.64 (≈ 4 µg/mL) | 6.55 (≈ 16 µg/mL) | 6.55 (≈ 16 µg/mL) | 6.55 (≈ 16 µg/mL) | 
3 | CC[C@H](C)[C@H](NC(=O)[C@@H](N)C(C)C)C(=O)N[C@@H](Cc1cnc[nH]1)C(=O)N[C@@H](CCCCN)C(=O)N[C@@H](CC(C)C)C(=O)N[C@@H](C)C(=O)N[C@@H](CCCCN)C(=O)N[C@@H](CC(C)C)C(=O)N[C@@H](C)C(=O)N[C@@H](CCCCN)C(=O)N[C@@H](CCCCN)C(=O)N[C@@H](CC(C)C)C(=O)N[C@@H](C)C(=O)N[C@@H](CCCCN)C(=O)N[C@@H](CC(C)C)C(=O)N[C@@H](C)C(=O)N[C@@H](CCCCN)C(N)=O [VIHKLAKLAKKLAKLAK] |  |  |  |  |  |  |  |  |  |  |  | MIC [3]: ≥ 32 µM; MIC (Escherichia coli DL7): 0.25 µM and 0.125 µM; MIC [4]: 0.25 µM (≈ 0.468 µg/mL)
4 | CC(C)C[C@H](NC(=O)CN)C(=O)N[C@@H](CCC(N)=O)C(=O)N[C@@H](Cc1ccccc1)C(=O)N1CCC[C@H]1C(=O)N[C@H](C(=O)NCC(=O)N[C@@H](CCCN=C(N)N)C(=O)N[C@H](C(=O)N[C@@H](Cc1cnc[nH]1)C(=O)N[C@@H](CCCN=C(N)N)C(=O)N[C@@H](CC(C)C)C(=O)N[C@@H](CC(C)C)C(=O)N[C@@H](CCCN=C(N)N)C(=O)N[C@@H](CCCCN)C(=O)O)C(C)C)C(C)C [GLQFPVGRVHRLLRK] | 2.25 (≈ 4 µg/mL) | 1.13 (≈ 2 µg/mL) | 4.5 (≈ 8 µg/mL) | 1.13 (≈ 2 µg/mL) | 4.5 (≈ 8 µg/mL) | 2.25 (≈ 4 µg/mL) | 4.5 (≈ 8 µg/mL) | 4.5 (≈ 8 µg/mL) | 2.25 (≈ 4 µg/mL) | 2.25 (≈ 4 µg/mL) | 2.25 (≈ 4 µg/mL) | 
5 | CC[C@H](C)[C@H](NC(=O)[C@H](C)NC(=O)[C@@H](N)CS)C(=O)N[C@@H](CCC(=O)O)C(=O)N[C@@H](Cc1cnc[nH]1)C(=O)N[C@@H](CCSC)C(=O)N[C@@H](CCCN=C(N)N)C(=O)N[C@H](C(=O)N1CCC[C@H]1C(=O)N[C@@H](CC(C)C)C(=O)N[C@@H](CCCCN)C(=O)N1CCC[C@H]1C(=O)N[C@@H](Cc1ccccc1)C(=O)N[C@@H](CO)C(=O)N[C@@H](Cc1ccccc1)C(=O)NCC(=O)N1CCC[C@H]1C(=O)N1CCC[C@H]1C(=O)N[C@@H](Cc1ccc(O)cc1)C(=O)N[C@@H](CC(N)=O)C(=O)N[C@@H](CC(C)C)C(=O)O)[C@@H](C)O [CAIEHMRTPLKPFSFGPPYNL] |  |  |  |  |  |  |  |  |  |  |  | MIC [5]: 3.46 µM (≈ 8.38 µg/mL)
